Experimental data reported in patent US20250361230A1, “LATS Inhibitors and Uses Thereof” (The USA, as Represented by the Secretary, Dept. of Heath …, priority 2022, published 2025).
Where two headings read alike, the source gives them in different places.

Legend:
[1] = target: T1, LATS1 Kinase-NanoLuc fusion in HEK-293 cells (Homo sapiens, UniProt O95835); test: NanoBRET target engagement assay in transfected HEK-293 cells, LATS1; assay type: cell-based
T1 construct: host or cells: HEK-293
T1 sequence (O95835 1-1130): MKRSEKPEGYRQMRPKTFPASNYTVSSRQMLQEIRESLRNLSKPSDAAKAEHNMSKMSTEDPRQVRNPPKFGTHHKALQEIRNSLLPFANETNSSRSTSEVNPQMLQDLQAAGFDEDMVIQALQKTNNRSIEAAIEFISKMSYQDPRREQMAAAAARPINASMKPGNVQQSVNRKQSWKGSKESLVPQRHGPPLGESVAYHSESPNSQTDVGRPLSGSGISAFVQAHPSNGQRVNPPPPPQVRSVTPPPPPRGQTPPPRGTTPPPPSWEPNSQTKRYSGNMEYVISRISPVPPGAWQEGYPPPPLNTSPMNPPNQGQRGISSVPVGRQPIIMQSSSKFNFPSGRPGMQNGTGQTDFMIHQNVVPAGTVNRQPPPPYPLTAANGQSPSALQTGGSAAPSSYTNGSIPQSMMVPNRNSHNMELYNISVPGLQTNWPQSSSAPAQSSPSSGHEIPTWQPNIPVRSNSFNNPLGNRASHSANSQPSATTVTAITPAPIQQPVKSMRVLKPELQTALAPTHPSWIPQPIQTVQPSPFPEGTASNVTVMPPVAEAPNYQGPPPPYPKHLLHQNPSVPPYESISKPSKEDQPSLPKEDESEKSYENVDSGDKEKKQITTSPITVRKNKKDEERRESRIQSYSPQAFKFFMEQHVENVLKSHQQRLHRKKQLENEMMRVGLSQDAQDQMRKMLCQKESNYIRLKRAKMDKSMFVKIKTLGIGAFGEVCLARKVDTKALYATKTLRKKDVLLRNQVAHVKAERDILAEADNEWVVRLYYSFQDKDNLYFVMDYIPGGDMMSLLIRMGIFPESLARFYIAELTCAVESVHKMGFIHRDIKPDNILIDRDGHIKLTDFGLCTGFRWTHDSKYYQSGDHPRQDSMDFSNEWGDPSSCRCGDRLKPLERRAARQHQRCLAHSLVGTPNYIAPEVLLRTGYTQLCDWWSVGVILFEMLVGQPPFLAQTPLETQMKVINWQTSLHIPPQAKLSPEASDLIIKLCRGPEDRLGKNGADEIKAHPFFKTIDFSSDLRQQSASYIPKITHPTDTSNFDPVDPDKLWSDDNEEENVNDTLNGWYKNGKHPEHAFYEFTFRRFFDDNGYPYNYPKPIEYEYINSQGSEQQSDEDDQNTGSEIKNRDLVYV
How it was run: (§1)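 HEK-293 cells transiently transfected with kinase-NanoLuc fusion plasmid for 22-24 h, then incubated with compound and NanoBRET tracer for 1 hour at 37° C. After substrate plus extracellular NanoLuc inhibitor addition, 460 and 600 nm emissions read; no-tracer-corrected BRET ratio used to derive IC50 values.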

[2] = target: T2, AKT Kinase-NanoLuc fusion in HEK-293 cells (Homo sapiens, UniProt P31749); test: NanoBRET target engagement assay in transfected HEK-293 cells, AKT; assay type: cell-based
T2 construct: host or cells: HEK-293
T2 sequence (P31749 whole entry, the tested form may be a part): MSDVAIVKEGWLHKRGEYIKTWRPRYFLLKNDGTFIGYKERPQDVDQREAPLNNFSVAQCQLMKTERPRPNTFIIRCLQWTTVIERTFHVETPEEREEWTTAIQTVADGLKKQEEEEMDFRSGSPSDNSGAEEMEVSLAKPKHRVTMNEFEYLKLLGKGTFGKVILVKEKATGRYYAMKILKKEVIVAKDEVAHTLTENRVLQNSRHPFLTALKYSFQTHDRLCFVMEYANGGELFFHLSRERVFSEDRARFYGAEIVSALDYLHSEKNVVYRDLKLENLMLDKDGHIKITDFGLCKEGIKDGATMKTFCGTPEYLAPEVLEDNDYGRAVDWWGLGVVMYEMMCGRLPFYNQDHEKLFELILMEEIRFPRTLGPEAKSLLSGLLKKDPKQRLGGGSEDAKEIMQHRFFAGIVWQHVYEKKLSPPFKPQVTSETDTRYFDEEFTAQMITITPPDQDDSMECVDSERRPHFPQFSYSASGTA
How it was run: as §1

[3] = Table 28, NanoBRET, HEK-293 cells, read-out: LATS1 (Cellular) IC50
[4] = Table 28, NanoBRET, HEK-293 cells, read-out: AKT1 (Cellular) IC50
[5] = Table 32, NanoBRET, HEK-293 cells, read-out: LATS1 (Cellular) IC50
[6] = Table 32, NanoBRET, HEK-293 cells, read-out: AKT (Cellular) IC50
[7] = cellular, read-out: AKT (Cellular) IC50

| Structure (SMILES) | IC50 [1, 5] [nM] | IC50 [2, 6] [nM] | IC50 ([1]; cellular) [nM] | IC50 [2, 7] [nM] | further results |
| --- | --- | --- | --- | --- | --- |
| COC(=O)c1c[nH]c2nccc(-c3cc(C)c([C@@]4(O)[C@H](C)CN(C(=O)CN)C[C@@H]4C)c(F)c3)c12 [Compound 310, methyl 4-(3-fluoro-4-((3S,4s,5R)-1-glycyl-4-hydroxy-3,5-dimethylpiperidin-4-yl)-5-methylphenyl)-1H-pyrrolo[2,3-b]pyridine-3-carboxylate] |  |  |  |  | IC50 [1, 3]: 4590 nM; IC50 [2, 4]: 49400 nM |
| Cc1cc(-c2ccnc3[nH]cc(F)c23)cc(F)c1[C@@]1(O)[C@H](C)CN(C(=O)[C@H](N)CO)C[C@@H]1C [Compound 312, (R)-2-amino-1-((3S,4R,5R)-4-(2-fluoro-4-(3-fluoro-1H-pyrrolo[2,3-b]pyridin-4-yl)-6-methylphenyl)-4-hydroxy-3,5-dimethylpiperidin-1-yl)-3-hydroxypropan-1-one] |  |  |  |  | IC50 [1, 3]: 10.4 nM; IC50 [2, 4]: 12800 nM |
| Cc1cc(-c2ccnc3[nH]cc(F)c23)cc(F)c1[C@@]1(O)[C@H](C)CN(C(=O)[C@@H](CO)N(C)C)C[C@@H]1C [Compound 313, (R)-2-(dimethylamino)-1-((3S,4S,5R)-4-(2-fluoro-4-(3-fluoro-1H-pyrrolo[2,3-b]pyridin-4-yl)-6-methylphenyl)-4-hydroxy-3,5-dimethylpiperidin-1-yl)-3-hydroxypropan-1-one] |  |  |  |  | IC50 [1, 3]: 43 nM; IC50 [2, 4]: 19200 nM |
| OC1(c2ccc(-c3ccnc4[nH]cc(F)c34)cc2)CC2(CNC2)C1 [Compound 319, 6-(4-(3-fluoro-1H-pyrrolo[2,3-b]pyridin-4-yl)phenyl)-2-azaspiro[3.3]heptan-6-ol] |  |  |  |  | IC50 [1, 3]: 27700 nM; IC50 [2, 4]: 44800 nM |
| NCC(O)(c1ccc(Cl)cc1)c1ccc(-c2ccnc3[nH]ccc23)cc1 (stereo not drawn) [Compound 1001, 1-(4-(1H-pyrrolo[2,3-b]pyridin-4-yl)phenyl)-2-amino-1-(4-chlorophenyl)ethan-1-ol] | 123 | 42 |  |  |  |
| NCC(O)(c1ccc(Cl)cc1)c1ccc(-c2ccnc3[nH]cc(F)c23)cc1 (stereo not drawn) [Compound 1002, 2-amino-1-(4-chlorophenyl)-1-(4-(3-fluoro-1H-pyrrolo[2,3-b]pyridin-4-yl)phenyl)ethan-1-ol] | 55 | 27 |  |  |  |
| COC(=O)c1c[nH]c2nccc(-c3ccc(C(O)(CN)c4ccc(Cl)cc4)cc3)c12 (stereo not drawn) [Compound 1004, Methyl 4-(4-(2-amino-1-(4-chlorophenyl)-1-hydroxyethyl)phenyl)-1H-pyrrolo[2,3-b]pyridine-3-carboxylate] | 2000 | 548 |  |  |  |
| NCC(O)(c1ccc(Cl)cc1)c1ccc(-c2ccnc3[nH]cc(Br)c23)cc1 (stereo not drawn) [Compound 1005, 2-amino-1-(4-(3-bromo-1H-pyrrolo[2,3-b]pyridin-4-yl)phenyl)-1-(4-chlorophenyl)ethan-1-ol] | 8 | 2.9 |  |  |  |
| NCC(O)(c1ccc(Cl)cc1)c1ccc(-c2ccnc3[nH]cc(-c4ccccc4)c23)cc1 (stereo not drawn) [Compound 1006, 2-amino-1-(4-chlorophenyl)-1-(4-(3-phenyl-1H-pyrrolo[2,3-b]pyridin-4-yl)phenyl)ethan-1-ol] | 283 | 135 |  |  |  |
| NCC(O)(c1ccc(Cl)cc1)c1ccc(-c2ccnc3[nH]cc(-c4cccnc4)c23)cc1 (stereo not drawn) [Compound 1007, 2-amino-1-(4-chlorophenyl)-1-(4-(3-(pyridin-3-yl)-1H-pyrrolo[2,3-b]pyridin-4-yl)phenyl)ethan-1-ol] | 309 | 153 |  |  |  |
| NCC(O)(c1ccc(Cl)cc1)c1ccc(-c2ccnc3[nH]cc(Br)c23)nc1 (stereo not drawn) [Compound 1011, 2-amino-1-(6-(3-bromo-1H-pyrrolo[2,3-b]pyridin-4-yl)pyridin-3-yl)-1-(4-chlorophenyl)ethan-1-ol] | 24 | 76.3 |  |  |  |
| NCC(=O)NCC(O)(c1ccc(Cl)cc1)c1ccc(-c2ccnc3[nH]cc(Cl)c23)cc1 (stereo not drawn) [Compound 1021, 2-amino-N-(2-(4-(3-chloro-1H-pyrrolo[2,3-b]pyridin-4-yl)phenyl)-2-(4-chlorophenyl)-2-hydroxyethyl) acetamide] | 159 | 12 |  |  |  |
| Cc1cc(-c2ccnc3[nH]cc(C#N)c23)cc(F)c1[C@@]1(O)[C@H](C)CN(C2CCS(=O)(=O)CC2)C[C@@H]1C [Compound 2002, 4-(4-((3S,4s,5R)-1-(1,1-dioxidotetrahydro-2H-thiopyran-4-yl)-4-hydroxy-3,5-dimethylpiperidin-4-yl)-3-fluoro-5-methylphenyl)-1H-pyrrolo[2,3-b]pyridine-3-carbonitrile] |  |  | 30.4 | 57900 |  |
| Cc1cc(-c2ccnc3[nH]cc(C#N)c23)cc(F)c1[C@@]1(O)[C@H](C)CN(C(=O)CN)C[C@@H]1C [Compound 2004, 4-(3-fluoro-4-((3S,4s,5R)-1-glycyl-4-hydroxy-3,5-dimethylpiperidin-4-yl)-5-methylphenyl)-1H-pyrrolo[2,3-b]pyridine-3-carbonitrile] |  |  | 2.5 | 51700 |  |
| Cc1cc(-c2ccnc3[nH]cc(C#N)c23)ccc1[C@@]1(O)[C@H](C)CN(C(=O)CN)C[C@@H]1C [Compound 2005, 4-(4-((3S,4s,5R)-1-glycyl-4-hydroxy-3,5-dimethylpiperidin-4-yl)-3-methylphenyl)-1H-pyrrolo[2,3-b]pyridine-3-carbonitrile] |  |  | 46.6 | 56800 |  |
| Cc1cc(-c2ccnc3[nH]cc(C#N)c23)cc(F)c1[C@@]1(O)[C@H](C)CN(C(=O)[C@H](N)CO)C[C@@H]1C [Compound 2007, 4-(4-((3S,4S,5R)-1-(D-seryl)-4-hydroxy-3,5-dimethylpiperidin-4-yl)-3-fluoro-5-methylphenyl)-1H-pyrrolo[2,3-b]pyridine-3-carbonitrile] |  |  | < 2.5 | > 50000 |  |
| Cc1cc(-c2ccnc3[nH]cc(C#N)c23)cc(F)c1[C@@]1(O)[C@H](C)CN(C(=O)[C@](C)(N)CO)C[C@@H]1C [Compound 2008, 4-(4-((3S,4s,5R)-1-(2-amino-3-hydroxy-2-methylpropanoyl)-4-hydroxy-3,5-dimethylpiperidin-4-yl)-3-fluoro-5-methylphenyl)-1H-pyrrolo[2,3-b]pyridine-3-carbonitrile] |  |  | < 2.5 | > 50000 |  |
| Cc1cc(-c2ccnc3[nH]cc(C#N)c23)cc(F)c1[C@@]1(O)[C@H](C)CN(C(=O)[C@H](C)N)C[C@@H]1C [Compound 2011, 4-(4-((3S,4R,5R)-1-(L-alanyl)-4-hydroxy-3,5-dimethylpiperidin-4-yl)-3-fluoro-5-methylphenyl)-1H-pyrrolo[2,3-b]pyridine-3-carbonitrile] |  |  | < 2.5 | > 50000 |  |
| CNCC(=O)N1C[C@@H](C)[C@](O)(c2c(C)cc(-c3ccnc4[nH]cc(C#N)c34)cc2F)[C@@H](C)C1 [Compound 2012, 4-(3-fluoro-4-((3S,4s,5R)-4-hydroxy-3,5-dimethyl-1-(methylglycyl)piperidin-4-yl)-5-methylphenyl)-1H-pyrrolo[2,3-b]pyridine-3-carbonitrile] |  |  | < 2.5 | > 50000 |  |
| Cc1cc(-c2ccnc3[nH]cc(C#N)c23)cc(F)c1[C@@]1(O)[C@H](C)CN(C(=O)CNCC(F)(F)F)C[C@@H]1C [Compound 2014, 4-(3-fluoro-4-((3S,4s,5R)-4-hydroxy-3,5-dimethyl-1-((2,2,2-trifluoroethyl)glycyl)piperidin-4-yl)-5-methylphenyl)-1H-pyrrolo[2,3-b]pyridine-3-carbonitrile] |  |  | 139 | > 50000 |  |
| Cc1cc(-c2ccnc3[nH]cc(C#N)c23)cc(F)c1[C@@]1(O)[C@H](C)CN(C(=O)[C@@H](C)N)C[C@@H]1C [Compound 2015, 4-(4-((3S,4S,5R)-1-(D-alanyl)-4-hydroxy-3,5-dimethylpiperidin-4-yl)-3-fluoro-5-methylphenyl)-1H-pyrrolo[2,3-b]pyridine-3-carbonitrile] |  |  | < 2.5 | > 50000 |  |
